≈ marks a conversion by molar mass, not a printed value.
Experiments:
[1] = tested on: Oncomelania hupensis; test: Molluscicidal activity against Oncomelania hupensis measured after 24 hrs; assay type: functional; settings: for LC50: Oncomelania hupensis, 24 h
[2] = tested on: Schistosoma japonicum; test: Cercaricidal activity against Schistosoma japonicum infected in Oncomelania hupensis measured after 120 mins by colour television microscopy; assay type: functional; settings: for LC50: Schistosoma japonicum, 2 h
[3] = Toxicity in tadpole assessed as lethality at 0.625 ppm measured after 48 hrs; assay type: organism-based; settings: anura, in vivo
[4] = Toxicity in tadpole assessed as lethality at 1.25 ppm measured after 48 hrs; assay type: organism-based; settings: anura, in vivo
[5] = Toxicity in tadpole assessed as lethality at 2.5 ppm measured after 24 hrs; assay type: organism-based; settings: anura, in vivo
[6] = Toxicity in tadpole assessed as lethality at 0.3125 ppm measured after 96 hrs; assay type: organism-based; settings: anura, in vivo
[7] = Toxicity in tadpole assessed as lethality at 5 ppm measured after 12 hrs; assay type: organism-based; settings: anura, in vivo
[8] = Toxicity in tadpole assessed as lethality at 2.5 ppm measured after 96 hrs; assay type: organism-based; settings: anura, in vivo
[9] = Toxicity in tadpole assessed as lethality at 5 ppm measured after 120 hrs; assay type: organism-based; settings: anura, in vivo
[10] = Toxicity in tadpole assessed as lethality at 10 ppm measured after 48 hrs; assay type: organism-based; settings: anura, in vivo
[11] = Toxicity in tadpole assessed as lethality at 1.25 ppm measured after 120 hrs; assay type: organism-based; settings: anura, in vivo
[12] = Toxicity in tadpole assessed as lethality at 0.3125 ppm measured after 120 hrs; assay type: organism-based; settings: anura, in vivo
[13] = Toxicity in tadpole assessed as lethality at 2.5 ppm measured after 120 hrs; assay type: organism-based; settings: anura, in vivo
[14] = Toxicity in tadpole assessed as lethality at 1.25 ppm measured after 72 hrs; assay type: organism-based; settings: anura, in vivo
[15] = Toxicity in tadpole assessed as lethality at 10 ppm measured after 72 hrs; assay type: organism-based; settings: anura, in vivo
[16] = Toxicity in tadpole assessed as lethality at 1.25 ppm measured after 12 hrs; assay type: organism-based; settings: anura, in vivo
[17] = Toxicity in tadpole assessed as lethality at 10 ppm measured after 12 hrs; assay type: organism-based; settings: anura, in vivo
[18] = Toxicity in tadpole assessed as lethality at 2.5 ppm measured after 48 hrs; assay type: organism-based; settings: anura, in vivo
[19] = Toxicity in tadpole assessed as lethality at 2.5 ppm measured after 72 hrs; assay type: organism-based; settings: anura, in vivo
[20] = Toxicity in tadpole assessed as lethality at 1.25 ppm measured after 24 hrs; assay type: organism-based; settings: anura, in vivo
[21] = Toxicity in tadpole assessed as lethality at 5 ppm measured after 72 hrs; assay type: organism-based; settings: anura, in vivo
[22] = Toxicity in tadpole assessed as lethality at 0.3125 ppm measured after 24 hrs; assay type: organism-based; settings: anura, in vivo
[23] = Toxicity in tadpole assessed as lethality at 10 ppm measured after 24 hrs; assay type: organism-based; settings: anura, in vivo
[24] = Toxicity in tadpole assessed as lethality at 10 ppm measured after 120 hrs; assay type: organism-based; settings: anura, in vivo
[25] = Toxicity in tadpole assessed as lethality at 0.625 ppm measured after 24 hrs; assay type: organism-based; settings: anura, in vivo
[26] = Toxicity in tadpole assessed as lethality at 5 ppm measured after 24 hrs; assay type: organism-based; settings: anura, in vivo
[27] = Toxicity in tadpole assessed as lethality at 0.3125 ppm measured after 72 hrs; assay type: organism-based; settings: anura, in vivo
[28] = Toxicity in tadpole assessed as lethality at 0.625 ppm measured after 72 hrs; assay type: organism-based; settings: anura, in vivo
[29] = Toxicity in tadpole assessed as lethality at 0.3125 ppm measured after 12 hrs; assay type: organism-based; settings: anura, in vivo
[30] = Toxicity in tadpole assessed as lethality at 1.25 ppm measured after 96 hrs; assay type: organism-based; settings: anura, in vivo
[31] = Toxicity in tadpole assessed as lethality at 5 ppm measured after 48 hrs; assay type: organism-based; settings: anura, in vivo
[32] = Toxicity in tadpole assessed as lethality at 2.5 ppm measured after 12 hrs; assay type: organism-based; settings: anura, in vivo
[33] = Toxicity in tadpole assessed as lethality at 5 ppm measured after 96 hrs; assay type: organism-based; settings: anura, in vivo
[34] = Toxicity in tadpole assessed as lethality at 0.625 ppm measured after 120 hrs; assay type: organism-based; settings: anura, in vivo
[35] = Toxicity in tadpole assessed as lethality at 0.3125 ppm measured after 48 hrs; assay type: organism-based; settings: anura, in vivo
[36] = Toxicity in tadpole assessed as lethality at 0.625 ppm measured after 12 hrs; assay type: organism-based; settings: anura, in vivo
[37] = Toxicity in tadpole assessed as lethality at 0.625 ppm measured after 96 hrs; assay type: organism-based; settings: anura, in vivo
[38] = Toxicity in tadpole assessed as lethality at 10 ppm measured after 96 hrs; assay type: organism-based; settings: anura, in vivo

SMILES: Cc1ccc(-n2cnc3c(Cl)cc(Cl)cc3c2=O)cc1
- LC90 [1]: 6.21 ppm
- LC50 [1]: 4.71 µg/mL (≈ 15.4 µM)
- LC90 [2]: 1.57 ppm
- LC50 [2]: 1.19 µg/mL (≈ 3.9 µM)

SMILES: COc1cc(-n2cnc3ccc([N+](=O)[O-])cc3c2=O)cc(OC)c1OC
- LC90 [1]: 6.61 ppm
- LC50 [1]: 5.01 µg/mL (≈ 14 µM)
- LC90 [2]: 1.66 ppm
- LC50 [2]: 1.26 µg/mL (≈ 3.53 µM)

SMILES: Cc1ccc(-n2cnc3ccc(Cl)cc3c2=O)cc1
- LC90 [1]: 5.37 ppm
- LC50 [1]: 4.07 µg/mL (≈ 15 µM)
- LC90 [2]: 1.35 ppm
- LC50 [2]: 1.02 µg/mL (≈ 3.77 µM)

SMILES: O=c1c2cc(Cl)cc(Cl)c2ncn1-c1ccccc1
- LC90 [1]: 8.71 ppm
- LC50 [1]: 6.61 µg/mL (≈ 22.7 µM)
- LC90 [2]: 2.19 ppm
- LC50 [2]: 1.66 µg/mL (≈ 5.7 µM)

SMILES: COc1ccc(-n2cnc3ccc(Cl)cc3c2=O)cc1
- LC90 [1]: 5.01 ppm
- LC50 [1]: 3.8 µg/mL (≈ 13.3 µM)
- LC90 [2]: 1.23 ppm
- LC50 [2]: 0.95 µg/mL (≈ 3.31 µM)

SMILES: COc1ccc(-n2cnc3ccc(Cl)cc3c2=O)c(OC)c1
- LC90 [1]: 4.97 ppm
- LC50 [1]: 3.78 µg/mL (≈ 11.9 µM)
- LC90 [2]: 1.19 ppm
- LC50 [2]: 0.91 µg/mL (≈ 2.87 µM)

SMILES: Cc1ccc(-n2cnc3ccc(Cl)cc3c2=O)c(C)c1
- LC90 [1]: 5.75 ppm
- LC50 [1]: 4.36 µg/mL (≈ 15.3 µM)
- LC90 [2]: 1.45 ppm
- LC50 [2]: 1.1 µg/mL (≈ 3.86 µM)

SMILES: COc1cc(-n2cnc3ccc(Cl)cc3c2=O)cc(OC)c1OC
- mortality at 48 h, 0.625 ppm [3]: 0%
- mortality at 48 h, 1.25 ppm [4]: 0%
- mortality at 24 h, 2.5 ppm [5]: 0%
- mortality at 96 h, 0.3125 ppm [6]: 0%
- mortality at 12 h, 5 ppm [7]: 0%
- mortality at 96 h, 2.5 ppm [8]: 0%
- mortality at 120 h, 5 ppm [9]: 10%
- mortality at 48 h, 10 ppm [10]: 10%
- mortality at 120 h, 1.25 ppm [11]: 0%
- mortality at 120 h, 0.3125 ppm [12]: 0%
- mortality at 120 h, 2.5 ppm [13]: 0%
- mortality at 72 h, 1.25 ppm [14]: 0%
- mortality at 72 h, 10 ppm [15]: 10%
- LC90 [1]: 3.55 ppm
- LC50 [1]: 2.69 µg/mL (≈ 7.76 µM)
- mortality at 12 h, 1.25 ppm [16]: 0%
- mortality at 12 h, 10 ppm [17]: 0%
- mortality at 48 h, 2.5 ppm [18]: 0%
- mortality at 72 h, 2.5 ppm [19]: 0%
- mortality at 24 h, 1.25 ppm [20]: 0%
- mortality at 72 h, 5 ppm [21]: 0%
- mortality at 24 h, 0.3125 ppm [22]: 0%
- mortality at 24 h, 10 ppm [23]: 0%
- mortality at 120 h, 10 ppm [24]: 20%
- mortality at 24 h, 0.625 ppm [25]: 0%
- mortality at 24 h, 5 ppm [26]: 0%
- mortality at 72 h, 0.3125 ppm [27]: 0%
- mortality at 72 h, 0.625 ppm [28]: 0%
- mortality at 12 h, 0.3125 ppm [29]: 0%
- mortality at 96 h, 1.25 ppm [30]: 0%
- mortality at 48 h, 5 ppm [31]: 0%
- mortality at 12 h, 2.5 ppm [32]: 0%
- mortality at 96 h, 5 ppm [33]: 10%
- mortality at 120 h, 0.625 ppm [34]: 0%
- mortality at 48 h, 0.3125 ppm [35]: 0%
- mortality at 12 h, 0.625 ppm [36]: 0%
- mortality at 96 h, 0.625 ppm [37]: 0%
- LC90 [2]: 0.89 ppm
- LC50 [2]: 0.68 µg/mL (≈ 1.96 µM)
- mortality at 96 h, 10 ppm [38]: 20%

SMILES: NCCO.O=C(Nc1ccc([N+](=O)[O-])cc1Cl)c1cc(Cl)ccc1O
- LC90 [1]: <1 ppm
- LC50 [1]: < 1 µg/mL
- LC90 [2]: <0.1 ppm
- LC50 [2]: < 0.1 µg/mL

SMILES: COc1cc(-n2cnc3c(Cl)cc(Cl)cc3c2=O)cc(OC)c1OC
- LC90 [1]: 12.95 ppm
- LC50 [1]: 9.95 µg/mL (≈ 26.1 µM)
- LC90 [2]: 3.28 ppm
- LC50 [2]: 2.49 µg/mL (≈ 6.53 µM)

SMILES: O=c1c2cc(Cl)cc(Cl)c2ncn1-c1ccc([N+](=O)[O-])cc1
- LC90 [1]: 6.11 ppm
- LC50 [1]: 4.65 µg/mL (≈ 13.8 µM)
- LC90 [2]: 1.52 ppm
- LC50 [2]: 1.15 µg/mL (≈ 3.42 µM)

SMILES: CN(C)c1ccc(-n2cnc3c(Cl)cc(Cl)cc3c2=O)cc1
- LC90 [1]: 8.13 ppm
- LC50 [1]: 6.17 µg/mL (≈ 18.5 µM)
- LC90 [2]: 2.04 ppm
- LC50 [2]: 1.55 µg/mL (≈ 4.64 µM)

SMILES: Cc1ccc(-n2cnc3c(Cl)cc(Cl)cc3c2=O)c(C)c1
- LC90 [1]: 7.08 ppm
- LC50 [1]: 5.37 µg/mL (≈ 16.8 µM)
- LC90 [2]: 1.78 ppm
- LC50 [2]: 1.35 µg/mL (≈ 4.23 µM)

SMILES: COc1ccc(-n2cnc3c(Cl)cc(Cl)cc3c2=O)c(OC)c1
- LC90 [1]: 8.62 ppm
- LC50 [1]: 6.55 µg/mL (≈ 18.7 µM)
- LC90 [2]: 2.15 ppm
- LC50 [2]: 1.64 µg/mL (≈ 4.67 µM)

SMILES: Cc1ccc(-n2cnc3ccc([N+](=O)[O-])cc3c2=O)cc1
- LC90 [1]: 7.58 ppm
- LC50 [1]: 5.75 µg/mL (≈ 20.4 µM)
- LC90 [2]: 1.91 ppm
- LC50 [2]: 1.45 µg/mL (≈ 5.16 µM)

SMILES: O=c1c2cc(Cl)ccc2ncn1-c1ccccc1
- LC90 [1]: 6.16 ppm
- LC50 [1]: 4.68 µg/mL (≈ 18.2 µM)
- LC90 [2]: 1.55 ppm
- LC50 [2]: 1.17 µg/mL (≈ 4.56 µM)

SMILES: O=c1c2cc([N+](=O)[O-])ccc2ncn1-c1ccccc1
- LC90 [1]: 9.33 ppm
- LC50 [1]: 7.07 µg/mL (≈ 26.5 µM)
- LC90 [2]: 2.34 ppm
- LC50 [2]: 1.78 µg/mL (≈ 6.66 µM)

SMILES: COc1cc([N+](=O)[O-])ccc1-n1cnc2c(Cl)cc(Cl)cc2c1=O
- LC90 [1]: 7.03 ppm
- LC50 [1]: 5.34 µg/mL (≈ 14.6 µM)
- LC90 [2]: 1.72 ppm
- LC50 [2]: 1.31 µg/mL (≈ 3.58 µM)

SMILES: CCCn1cnc2ccc(Cl)cc2c1=O
- LC90 [1]: >100 ppm
- LC50 [1]: > 100 µg/mL
- LC90 [2]: >50 ppm
- LC50 [2]: > 50 µg/mL

SMILES: COc1ccc(-n2cnc3c(Cl)cc(Cl)cc3c2=O)cc1
- LC90 [1]: 13.18 ppm
- LC50 [1]: 10 µg/mL (≈ 31.1 µM)
- LC90 [2]: 3.31 ppm
- LC50 [2]: 2.51 µg/mL (≈ 7.82 µM)

SMILES: O=c1c2cc(Cl)ccc2ncn1C1CCCCC1
- LC90 [1]: >100 ppm
- LC50 [1]: > 100 µg/mL
- LC90 [2]: >50 ppm
- LC50 [2]: > 50 µg/mL

Source: ChEMBL document CHEMBL3792356, “Discovery of molluscicidal and cercaricidal activities of 3-substituted quinazolinone derivatives by a scaffold hopping approach using a pseudo-ring based on the intramolecular hydrogen bond formation” (Eur J Med Chem, 2016)
